Laboratory results reported in patent US9820497B2, “Astaxanthin-containing pet foods” (FUJI CHEMICAL INDUSTRY CO., LTD, priority 2003, dated 2017).

Key:
[1] = Feces odor test (odor tester KALMOR-Σ) before and after administration; format: in vivo, dog; settings: four dogs, 4 weeks of administration; conclusion from Table 3
Experimental: (§1) Four dogs were fed only with the same commercially available dog food for 3 months or more, and thereafter, two AstaReal tablets (manufactured by Natureal Corporation, containing 0.67 mg of free astaxanthin per tablet in terms of free astaxanthin) per day were given to the dogs at dinner for 4 weeks. […] The feces discharged before and after administration of astaxanthin were collected. Samples were prepared each by taking a piece from the top portion, middle portion and end portion in the same amount and mixing these pieces. The samples were placed in a shielded vessel of 100 ml in volume and kept in dark and used in tests within 24 hours.
Odor of the samples was measured by an odor tester (KALMOR-Σ, manufactured by Kalmor Co.) in a room maintained at 22° C. To explain more specifically, the odor of an airtight vinyl bag of 280 mm×200 mm containing no sample was measured as an initial value by inserting a test probe. Then, 100 mg of sample was weighed, placed in the vinyl bag and stand still for 15 minutes. The odor of the vinyl bag having the sample placed therein was measured (measured value). The value of the odor was obtained by subtracting the initial value from the measured value.

dogs = test: Health conditions of the dogs before and during administration; format: in vivo, dog; settings: four dogs, before and during the 4 weeks of administration
Experimental: as §1

[2] = as high as β-carotene; cited from earlier work
[3] = known; cited from earlier work

CC1=C(/C=C/C(C)=C/C=C/C(C)=C/C=C/C=C(C)/C=C/C=C(C)/C=C/C2=C(C)C(=O)C(O)CC2(C)C)C(C)(C)CC(O)C1=O (stereo not drawn) [astaxanthin, 3,3′-dihydroxy-β,β-carotene-4,4′-dione]
odor of the excrement [1]: clearly is decreased | health conditions (diarrhea, fatigue) (dogs): healthy conditions without exhibiting diarrhea and fatigue | antioxidative action relative to β-carotene [2]: about 40 times | mutagenicity [3]: no mutagenicity is observed
